Data reported in US20080207738A1, “DRUG COMBINATIONS TO TREAT DRUG RESISTANT TUMORS” (priority 2007, published 2008).
Like-named read-outs stand apart in the source and are kept apart here.

What was measured:
[1] = tested on: parent L5178 mouse T-cell lymphoma cells; experiment: MTT cell viability, parent L5178 cells; details: Mus musculus, L5178, 72 h, read-out: Inhibition (%) of viability
Text: (§1) For the determination of relative number of viable cells before and after treatments, in most cases the MTT assay was used. This calorimetric assay is based on the ability of living cells, but not dead cells, to reduce 3-(4, 5-dimethyl thiazol-2-yl)-2, 5-diphenyltetrazolium bromide [Carmichael, J, De Graff, W. G., Gazdar, A. F., Minna, J. D. and Mitchell, J. B. (1987), “Evaluation oftetrazolium-based semiautomated calorimetric assay: Assessment of chemosensitivity testing,” Cancer Res., 47, 936-942]. For this assay, cells were plated in 96-well plates (10,000-30,000 cells in case of cultured cells, 100,000 cells in case of healthy lymphocytes, and 200,000 cells in case of chronic lymphocytic leukemia or non-Hodgkin lymphocytes) in the respective incubation media. After a 24-h resting period, the cells were treated with the test agents and then incubated (in CO2 incubator under humidified atmosphere) for 72 hours (final incubation volume, 150 μl). The MTT assay was performed both with the untreated and treated cell cultures at the conclusion of the incubation. Often, the MTT assay also was performed at the start of treatments to allow assessment of proliferation rates in the control and treated cell cultures. All data presented are the average of 4 incubations (in 4 separate wells) with the same cell population.
Parent L5178 cells were seeded at 10,000 cells per well in 96-well plates and then incubated for 72 hours in the absence or presence of CCcompound104 (1 or 5 μg/ml) and various concentrations of CCcompound26 as indicated in Table 5.
(§2) Epirubicin, like doxorubicin and other antracyclins, is an MDR1 substrate. The goal of this experiment was to use epirubicin as a model compound to determine if in L5178/MDR1 cells CCcompound104 also can enhance the effects of MDR1 substrate anti-cancer agents other than CCcompound26 and other thioxanthene or thioxanthone CC compounds. The parent and MDR1 expressing cells were seeded at 30,000 cells per well in 96-well microplates and after a 24-h resting period treated with increasing concentrations of epirubicin n in the absence or presence of 5 μg/ml of CCcompound104 for 72 hours.

Solubility in water = type: physicochemical
Text: In one embodiment, CCcompound104, CCcompound26 and EA may be administered orally. The two CC compounds are water-soluble, while EA is first dissolved in absolute ethanol and diluted in water or a suitable physiologically compatible liquid solvent. In one embodiment of the invention, the CC compounds and EA are in the form of a tablet, gel capsule, a liquid, or the like. In each case, the compounds are mixed with one or more carriers chosen by one having ordinary skill in the art to best suit the goal of treatment. In addition to the active compounds, the tablet or gel may contain any component that is presently used in the pharmaceutical field to ensure firmness, stability, solubility and appropriate taste. Any additional component of the tablet or gel will be chemically inert; i.e., it will not participate in a chemical reaction with the active compounds or the other additives. Each compound may be prepared for oral consumption separately, or the tablet, gel capsule or liquid may contain any of the two components or all three components. Tablets containing 25 mg or 50 mg of EA can be purchased from Merck.

MCF-7/ADR cells = experiment: MTT cell viability, MCF-7/ADR cells; type: cell-based, human; details: 72 h; CCcompound104 5 μg/ml, EA 60 μM, CCcompound26/CCcompound3/CCcompound19 50 μM, alone or combined
Description: MCF/ADR cells were selected by incubating the parent MCF-7 with toxic concentrations (up to 10 μM) of adriamycin (doxorubicin). The selected drug resistant cells express both MDR1 and MRP1 among other molecular alterations as reviewed earlier [Kiss, Z., Tomono, M. and Anderson, W. B. (1994), “Phorbol ester selectively stimulates the phospholipase D-mediated hydrolysis of phosphatidylethanolamine in multidrug-resistant MCF-7 human breast carcinoma cells,” Biochem. J., 302, 649-654]. […] Ethacrynic acid (EA) alone, used at 60 μM concentration, decreased cell viability by about 24%, while CCcompound104 and EA in combination had 70% inhibitory effects (Table 7). In this cell line CCcompound104 and EA decreased cell viability synergistically.

[2] = tested on: L5178/MDR1 mouse T-cell lymphoma cells; experiment: cells; details: Mus musculus, T-cell, 72 h, read-out: Inhibition (%) of viability
Text: as §1
L5178/MDR1 cells were seeded at 10,000 cells per well in 96-well plates and then incubated for 72 hours in the absence or presence of 5 μg/ml of CCcompound104 and various concentrations of CCcompound26 as indicated in Table 6.
as §2

CLL cells = experiment: cells; details: Homo sapiens, CLL cell, 72 h, 72 h, CCcompound104 5 μg/ml, CCcompound26 1 μM, alone or combined
Description: Heparinized peripheral-blood samples were obtained from chronic lymphocytic leukemia patients with more than 70% malignant cells after informed consent, in accordance with the Declaration of Helsinki. The blood samples (10-ml) were diluted 1:1 with cold phosphate buffered saline (PBS; 0.135 M NaCl, 2.7 mM KCl, 1.5 mM KH2PO4, 8 mM Na2HPO4 [pH 7.4]) and layered onto Ficoll-Hypaque (8-ml, specific gravity, 1.086; Life Technologies, Grand Island, N.Y.). Then, the blood was centrifuged at 433 g for 20 min, and mononuclear cells were removed from the interphase. Cells were washed twice with cold PBS and after each centrifugation step the pelleted cells were resuspended in 10-ml RPMI 1640 supplemented with 10% fetal bovine serum (inactivated for 30 min at 56° C.). A Coulter channelyzer (Coulter Electronics, Hialeah, Fla.) was used to determine the cell number. Then the number of cells was adjusted to 1×10^7 cells per 1 ml before using them for the experiments.
as §1

[3] = tested on: CaOV-3 human ovarian cancer cell line; experiment: Cell viability, CaOV-3 cells; details: Caov-3, read-out: decrease in viability / inhibition
Text: For the determination of relative number of viable cells before and after treatments, in most cases the MTT assay was used. This calorimetric assay is based on the ability of living cells, but not dead cells, to reduce 3-(4, 5-dimethyl thiazol-2-yl)-2, 5-diphenyltetrazolium bromide [Carmichael, J, De Graff, W. G., Gazdar, A. F., Minna, J. D. and Mitchell, J. B. (1987), “Evaluation oftetrazolium-based semiautomated calorimetric assay: Assessment of chemosensitivity testing,” Cancer Res., 47, 936-942]. For this assay, cells were plated in 96-well plates (10,000-30,000 cells in case of cultured cells, 100,000 cells in case of healthy lymphocytes, and 200,000 cells in case of chronic lymphocytic leukemia or non-Hodgkin lymphocytes) in the respective incubation media. After a 24-h resting period, the cells were treated with the test agents and then incubated (in CO2 incubator under humidified atmosphere) for 72 hours (final incubation volume, 150 μl). The MTT assay was performed both with the untreated and treated cell cultures at the conclusion of the incubation. Often, the MTT assay also was performed at the start of treatments to allow assessment of proliferation rates in the control and treated cell cultures. All data presented are the average of 4 incubations (in 4 separate wells) with the same cell population. […]

With `C=CC[N+](CC)(CC)CC/C=C1/c2ccccc2Sc2ccc(C)cc21.[Br-]` [CCcompound26, N,N-Diethyl-N-allyl-3-(2-methyl-9H-thioxanthen-9-ylidene)-propan-1-aminiumbromide] the cytotoxicity at 1.56 µM [1] was 55%, the cytotoxicity at 3.12 µM [1] was 68% and the cytotoxicity at 6.25 µM [1] was 80%. The solubility in water (Solubility in water) was “water-soluble”, the “Inhibition (%) of viability” value (MCF-7/ADR cells) was 24.3% and the cytotoxicity at 1.56 µM [2] was 0%. The cytotoxicity at 3.12 µM [2] was 0%, the cytotoxicity at 6.25 µM [2] was 10% and the cytotoxicity at 12.5 µM [2] was 15%. For the same compound, the cytotoxicity at 25 µM [2] was 13%, the cytotoxicity at 100 µM [2] was 56% and the cytotoxicity at 1 µM (CLL cells; read-out: Inhibition (%) of viability, CLL patient 1) was 3.5%. For the same compound, the cytotoxicity at 1 µM (CLL cells; read-out: Inhibition (%) of viability, CLL patient 2) was 15.8%, the cytotoxicity at 1 µM (CLL cells; read-out: Inhibition (%) of viability, CLL patient 3) was 66.6% and the cytotoxicity at 1 µM (CLL cells; read-out: Inhibition (%) of viability, CLL patient 4) was 46.2%. It also gave a cytotoxicity at 1 µM (CLL cells; read-out: Inhibition (%) of viability, CLL patient 5) of 10.8%, a cytotoxicity at 1 µM (CLL cells; read-out: Inhibition (%) of viability, CLL patient 6) of 20.9% and a cytotoxicity at 1 µM (CLL cells; read-out: Inhibition (%) of viability, CLL patient 7) of 1.8%. For the same compound, the cytotoxicity at 1 µM (CLL cells; read-out: Inhibition (%) of viability, CLL patient 8) was 9%, the cytotoxicity at 1 µM (CLL cells; read-out: Inhibition (%) of viability, CLL patient 9) was 9.2% and the cytotoxicity at 1 µM (CLL cells; read-out: Inhibition (%) of viability, CLL patient 10) was 40.7%. It also gave a cytotoxicity at 1 µM (CLL cells; read-out: Inhibition (%) of viability, CLL patient 11) of 48.1%, a cytotoxicity at 1 µM (CLL cells; read-out: Inhibition (%) of viability, CLL patient 12) of 30.4% and a cytotoxicity at 1 µM (CLL cells; read-out: Inhibition (%) of viability, CLL patient 13) of 42.8%. It also gave a cytotoxicity at 1 µM (CLL cells; read-out: Inhibition (%) of viability, CLL patient 14) of 72.7%, a cytotoxicity at 1 µM (CLL cells; read-out: Inhibition (%) of viability, CLL patient 15) of 1.6% and a cytotoxicity at 1 µM (CLL cells; read-out: Inhibition (%) of viability, CLL patient 16) of 50%. The cytotoxicity at 1 µM (CLL cells; read-out: Inhibition (%) of viability, CLL patient 19) was 22.5%, the cytotoxicity at 1 µM (CLL cells; read-out: Inhibition (%) of viability, CLL patient 20) was 0% and the cytotoxicity at 12.5 µM [3] was < 15%. For the same compound, the cytotoxicity at 25 µM [3] was < 45%.
